According to patent US10329305B2, “Amorphous solid form of a BET protein inhibitor” (Incyte Corporation, priority 2015, dated 2019):
Values after ≈ are worked out from the molar mass of the structure shown.

Experiments:
Type in all cases: physicochemical
[1] = Formulation of amorphous Compound 1-(S): solubility in vehicles; conditions: for solubility: aqueous with cosolvent or surfactant or cyclodextrin, thermodynamic from solid
Description: Amorphous Compound 1-(S) was formulated as described in the table below. Table 2 indicates the target concentration, final pH, solubility, and some observation of the resulting formulations.

[2] = Glass transition temperature by modulated DSC (MDSC); conditions: ramp rate 2° C./min, 10-150° C.
Method: The glass transition temperature (Tg) was determined to be 105.8° C. by modulated DSC (MDSC) using TA Instruments Differential Scanning calorimetry, Model Q2000 with autosampler. The MDSC instrument conditions were as follows: modulation temperature amplitude: ±1° C.; modulation: 60 second; ramp rate: 2° C./min; temperature range: 10-150° C.; Tzero aluminum sample pan and lid; and nitrogen gas flow at 50 mL/min.

[3] = Stability of amorphous Compound 1-(S) under elevated temperature and humidity (Karl-Fischer water content, HPLC/UV purity, XRPD); conditions: for Solid Form (XRPD) / Purity 220 nm / Purity 254 nm / Water content: open vial; for Purity 220 nm / Purity 254 nm: HPLC/UV; for Water content: Karl-Fischer
Method: Table 1 indicates the conditions/time to which the amorphous form was subjected and provides the measured water content (Karl-Fischer analysis) and purity (by HPLC/UV). The HPLC/UV instrument was Agilent HPLC 1100 with an Agilent Zorbax SB-C18, 3.5 μm, 4.6×150 mm column. The HPLC conditions were as follows: column temperature: 40° C.; mobile phase A (MPA): 0.05% (v/v) trifluoroacetic acid (TFA) in water; mobile phase B (MPB): 0.05% (v/v) TFA in acetonitrile; and flow rate: 1 mL/min.
The gradient conditions were as follows: […]

SMILES: Cc1noc(C)c1-c1ccc2[nH]c(=O)n3c2c1OC[C@@H]3c1ccccn1 [Amorphous Compound 1-(S), (4S)-7-(3,5-dimethylisoxazol-4-yl)-4-pyridin-2-yl-4,5-dihydroimidazo[1,5,4-de][1,4]benzoxazin-2(1H)-one]
- Observations ([1]; 0.5% MC in 50 mM citrate, pH 3.0, target concentration 0.5 mg/mL): solution
- Observations ([1]; 0.5% MC in 50 mM citrate, pH 3.0, target concentration 2.5 mg/mL): suspension
- Observations ([1]; 0.5% MC in water, target concentration 0.5 mg/mL): solution
- Observations ([1]; 0.5% MC in water, target concentration 2.5 mg/mL): suspension
- Observations ([1]; 10% TPGS in 50 mM citrate, pH 3.0, target concentration 2.5 mg/mL): solution
- solubility ([1]; 0.5% MC in 50 mM citrate, pH 3.0, target concentration 0.5 mg/mL, final pH 3.00): > 500 µg/mL
- solubility ([1]; 0.5% MC in 50 mM citrate, pH 3.0, target concentration 2.5 mg/mL, final pH 3.03): 1150 µg/mL (≈ 3300 µM)
- solubility ([1]; 0.5% MC in water, target concentration 0.5 mg/mL, final pH 6.76): > 500 µg/mL
- solubility ([1]; 0.5% MC in water, target concentration 2.5 mg/mL, final pH 7.87): 842 µg/mL (≈ 2420 µM)
- solubility ([1]; 10% TPGS in 50 mM citrate, pH 3.0, target concentration 2.5 mg/mL, final pH 3.07): > 2500 µg/mL
- glass transition temperature (Tg) [2]: 105.8 °C
- Solid Form (XRPD) ([3]; 40° C./75% RH, 0 weeks): Amorphous
- Purity 220 nm ([3]; 40° C./75% RH, 0 weeks): 98.22%
- Purity 254 nm ([3]; 40° C./75% RH, 0 weeks): 97.10%
- Water content ([3]; 40° C./75% RH, 0 weeks): 1.67%
- Purity 220 nm ([3]; 40° C./75% RH, 1 week): 98.22%
- Purity 254 nm ([3]; 40° C./75% RH, 1 week): 97.10%
- Water content ([3]; 40° C./75% RH, 1 week): 3.39%
- Solid Form (XRPD) ([3]; 40° C./75% RH, 2 weeks): Amorphous
- Purity 220 nm ([3]; 40° C./75% RH, 2 weeks): 98.18%
- Purity 254 nm ([3]; 40° C./75% RH, 2 weeks): 97.10%
- Water content ([3]; 40° C./75% RH, 2 weeks): 2.64%
- Solid Form (XRPD) ([3]; 50° C., 0 weeks): Amorphous
- Purity 220 nm ([3]; 50° C., 0 weeks): 98.22%
- Purity 254 nm ([3]; 50° C., 0 weeks): 97.10%
- Water content ([3]; 50° C., 0 weeks): 1.67%
- Purity 220 nm ([3]; 50° C., 1 week): 98.12%
- Purity 254 nm ([3]; 50° C., 1 week): 97.11%
- Water content ([3]; 50° C., 1 week): 0.69%
- Solid Form (XRPD) ([3]; 50° C., 2 weeks): Amorphous
- Purity 220 nm ([3]; 50° C., 2 weeks): 98.23%
- Purity 254 nm ([3]; 50° C., 2 weeks): 97.11%
- Water content ([3]; 50° C., 2 weeks): 0.43%
- physical stability ([3]; elevated temperature and humidity): physically stable
